Reference: ChEMBL document CHEMBL1127110, “Novel polyamide inducers of HL-60 cellular differentiation” (Bioorg Med Chem Lett, 1993)

tested on: HL-60; assay: The compound was evaluated in vitro for cytotoxicity against HL-60 cell lines; assay type: functional, cell-based; settings: Homo sapiens

SMILES | IC50 [mM]
CC(=O)NCCCCN(CCCNC(C)=O)C(C)=O | > 16
CC(=O)NCCCN(CCCCN(CCCNC(C)=O)C(C)=O)C(C)=O | > 16
CC(=O)NCCNC(=O)CCNC(C)=O | > 16
CC(=O)NCCC(=O)NCCNC(=O)CCNC(C)=O | 6
CC(=O)NCCCCCCNC(C)=O [HEXAMETHYLENEBISACETAMIDE] | 4
